According to ChEMBL document CHEMBL1157021, “Synthesis, structure and affinity of novel 3-alkoxy-1,2-dihydro-3H-1,4-benzodiazepin-2-ones for CNS central and peripheral benzodiazepine receptors” (Eur J Med Chem, 2010):

Legend:
Translocator protein = Translocator protein (Rattus norvegicus, UniProt P16257); test: Displacement of [3H]PK11195 from peripheral benzodiazepine receptor in Wistar rat brain synaptosomal membrane after 120 mins by scintillation counting
[1] = Displacement of [3H]flumazenil from central benzodiazepine receptor in Wistar rat brain synaptosomal membrane after 60 mins by scintillation counting
[2] = Binding affinity to central benzodiazepine receptor

Translocator protein, sequence (P16257 whole entry, looked up): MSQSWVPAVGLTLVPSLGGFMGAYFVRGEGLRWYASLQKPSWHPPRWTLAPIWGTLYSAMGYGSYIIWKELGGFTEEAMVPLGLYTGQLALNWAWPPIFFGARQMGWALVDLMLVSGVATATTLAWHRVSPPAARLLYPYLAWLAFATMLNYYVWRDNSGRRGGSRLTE

| SMILES | IC50 (Translocator protein) | IC50 [1] | Ki [2] |
| --- | --- | --- | --- |
| COCCO[C@H]1N=C(c2ccccc2)c2cc(Br)ccc2NC1=O | > 1000 nM | 4930 nM |  |
| O=C1Nc2ccc(Br)cc2C(c2ccccc2)=NC1OCCO (centres undefined) | > 1000 nM | 540 nM |  |
| COCCO[C@@H]1N=C(c2ccccc2)c2cc(Br)ccc2NC1=O | > 1000 nM | 245 nM |  |
| CCOC1N=C(c2ccccc2Cl)c2cc(Br)ccc2NC1=O (racemic) | > 1000 nM | 52 nM |  |
| CCOC1N=C(c2ccccc2)c2cc(C)ccc2NC1=O (racemic) | > 1000 nM | > 1000 nM |  |
| O=C1Nc2ccc(Br)cc2C(c2ccccc2Cl)=NC1OCCO (racemic) | > 1000 nM | 48 nM |  |
| CCOC1N=C(c2ccccc2)c2cc(Br)ccc2NC1=O (racemic) | > 1000 nM | > 1000 nM |  |
| COCCOC1N=C(c2ccccc2Cl)c2cc(Br)ccc2NC1=O (racemic) | > 1000 nM | 9 nM |  |
| COCCOC1N=C(c2ccccc2)c2cc(Br)ccc2NC1=O (racemic) | > 1000 nM | 510 nM |  |
| O=C(O)CCC(=O)OC1N=C(c2ccccc2Cl)c2cc(Br)ccc2NC1=O (centres undefined) [CINAZEPAM] |  |  | 72 nM |
